In ChEMBL document CHEMBL1127985, “Synthesis and biological evaluation of new LTA4 analogs” (Bioorg Med Chem Lett, 1994):
pIC50: −log10 of the molar value.

How the values were obtained:
[1] = species on record: Cavia porcellus; assay: Compound was tested for inhibition of LTD4 induced contraction of guinea pig ileum; assay type: functional
[2] = species on record: Cavia porcellus; assay: Compound was tested for inhibition of LTD4 induced contraction of guinea pig ileum at a concentration 5E-5 M; NS means No significant effect; assay type: functional

Row | SMILES | pIC50 [1] | IC50 [2]
1 | CCCCC/C=C\C\C=C/C=C/C=C/C1CC(CCC(=O)OC)=NO1 (stereo not given) | 4.02 | 
2 | CCCCC/C=C\C\C=C/C=C/C=C/c1conc1CCCC(=O)OC | 4.25 | 
3 | CCCCC/C=C\C\C=C/C=C/C=C/c1conc1CCC(=O)OC | 4.22 | 
4 | CCCCC/C=C\C\C=C/C=C/C=C/c1cc(CCC(=O)OC)no1 |  | Not Active
5 | CCCCCCCCCC/C=C/C=C/c1cc(CCC(=O)OC)no1 |  | Not Active
